This passage reports GI50 and TGI results from PubChem BioAssay (NCI).

Common to all, as to assay: growth of human tumour cells (NCI), 48 h
The test system of assay [1] is HCT-15 colon.
The test system of assay [2] is HOP-62 NSCLC.
The subject of assay [3] is SK-MEL-28 melanoma.
The subject of assay [4] is PC-3 prostate.
Assay [5] deals with CAKI-1 renal.
Assay [6] concerns SNB-75 CNS.
For assay [7], the system named is SNB-19 CNS.
Assay [8] deals with OVCAR-3 ovarian.
Assay [9] relates to HCC-2998 colon.
For assay [10], the system named is SF-539 CNS.

Each structure is given as a SMILES string.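 Values below derive from 48-hour exposures of cells grown in 96-well plates, with endpoints linearly interpolated between the two concentrations bracketing the appropriate inhibition level. GI50 marks 50% less growth. Definition used: TGI = concentration required for complete inhibition of growth.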

Turning to `CC/C=C\C[C@H](F)C/C=C1/C(=O)C=C[C@@H]1C/C=C\CCCC(=O)OC`, the GI50 in [1] was 1.19 µM; in assay [2], 1.45 µM; in assay [3], 1.52 µM; in assay [4], 1.74 µM; in [5], 1.87 µM; in assay [6] it was 5.64 µM. Besides, the GI50 was 2.35 µM in assay [7], 2.05 µM in assay [8], 4.1 µM in assay [9] and 4.26 µM in [10]. Besides, the TGI in assay [1] amounted to 4.42 µM; in assay [2], 3.45 µM; in [3] it was 4.94 µM; in assay [4] it was 5.7 µM; in assay [5], 6.82 µM; in [6] it was 11.7 µM. Moreover, the TGI in assay [7] is 9.23 µM; in assay [8], 6.9 µM; in assay [9], 10.6 µM; in [10] it was 11.2 µM.

As for `CC1CCN(Cc2ccc(NC(=O)c3cc4ccc5cccnc5c4[nH]3)cc2)CC1`, the GI50 in assay [1] is 3.07 µM; in assay [2], 5.27 µM; in assay [3], 1.79 µM; in assay [4], 5.1 µM; in assay [5], 6.58 µM; in assay [6], 10.8 µM. The GI50 in [7] is 13.1 µM; in [8], 7.83 µM; in assay [9], 2.55 µM; in assay [10], 1.94 µM. In addition, the TGI was found to be 18.5 µM in [1]; 33.9 µM in assay [2]; 3.49 µM in assay [3]; 23.7 µM in [4]; 31 µM in assay [5]; 27.8 µM in assay [6]. Moreover, the TGI is 27.6 µM in [7], 39.2 µM in assay [8], 5.8 µM in assay [9] and 4.01 µM in assay [10].

As for `Cn1c(=O)c(Oc2ccc(F)cc2F)cc2cnc(NC(C)(C)CO)nc21`, the GI50 in assay [1], in [2], in assay [3], in assay [4], in assay [5] and in assay [6] was over 25 µM throughout. Further, the GI50 in [7], in [8], in assay [9] and in assay [10] was over 25 µM throughout. Besides, the TGI in [1], in assay [2], in assay [3], in assay [4], in assay [5] and in assay [6] was over 25 µM in each case. Further, the TGI in assay [7], in [8], in [9] and in assay [10] was over 25 µM each time.

For `COc1cc(C2CC(c3cccc(Nc4ccnc5cc(Cl)ccc45)c3)=NN2c2ccc(Cl)cc2)cc(OC)c1OC` (stereo not given), the GI50 in [1] is 1.28 µM; in [2] it was 1.39 µM; in [3], 4.54 µM; in assay [4], 0.819 µM; in [5] it was 0.693 µM; in assay [6], 2.22 µM. Moreover, the GI50 in assay [7] was 30.3 µM; in assay [8] it was 3.72 µM; in assay [9] it was 3.14 µM; in assay [10], 1.71 µM. Besides, the TGI in assay [1] was over 100 µM; in assay [2], 22.7 µM; in assay [3], over 100 µM; in [4], over 100 µM; in assay [5], over 100 µM; in assay [6], over 100 µM. Further, the TGI was over 100 µM in assay [7], over 100 µM in assay [8], 22.1 µM in [9] and 4.87 µM in [10].

Regarding `O=c1oc2ccc(I)cc2c(=O)n1-c1ccc(F)cc1F`, the GI50 was 2.71 µM in assay [1]; 2.16 µM in assay [2]; 1.76 µM in [3]; 2.24 µM in assay [4]; 1.8 µM in [5]; 1.26 µM in assay [6]. Moreover, the GI50 was 2.63 µM in assay [7], 2.67 µM in assay [8], 3.23 µM in assay [9] and 2.79 µM in assay [10]. Further, the TGI came to 11.4 µM in assay [1]; 6.09 µM in [2]; 6.25 µM in [3]; 6.94 µM in assay [4]; 6.6 µM in assay [5]; 3.96 µM in [6]. The TGI in assay [7] is over 100 µM; in assay [8], 13 µM; in assay [9], 13.9 µM; in [10], 9.51 µM.

Take `C=C(CN1CCN(c2ccc(C(F)(F)F)cc2)CC1)c1ccc(C(=O)Nc2ccccc2N)cc1`: the GI50 in assay [1] is over 100 µM; in [2] it was 8.38 µM; in assay [3], over 100 µM; in assay [4], 1.29 µM; in [5], 6.08 µM; in assay [6], 12.4 µM. For the same compound, the GI50 was 12.5 µM in assay [7], 12 µM in assay [8], 30.2 µM in [9] and 8.15 µM in assay [10]. Besides, the TGI in assay [1] is over 100 µM; in [2] it was over 45 µM; in assay [3], over 100 µM; in [4], over 65.7 µM; in [5], 44 µM; in [6], 51.8 µM. In addition, the TGI in assay [7] was 73.5 µM; in assay [8], over 100 µM; in assay [9] it was over 100 µM; in [10], over 100 µM.

Regarding `C=C1CC2(CC(c3ccccc3Cl)OC(c3ccccc3Cl)C2)OC1=O` (stereo not given), the TGI in assay [1] amounted to 5.58 µM; in assay [2], 21.1 µM; in assay [3], 3.65 µM; in [4], 6.84 µM; in assay [5], 5.11 µM; in [6], 8.41 µM. Also, the TGI is 29.5 µM in [7], 5.96 µM in assay [8], 7.74 µM in [9] and 4.27 µM in assay [10].

Consider `Nc1c(C(=O)Nc2ccccc2)sc2nc3c(cc12)CCCCC3`, for which the GI50 was 0.421 µM in [1]; 0.88 µM in assay [2]; 0.812 µM in [3]; 0.547 µM in assay [4]; 0.478 µM in assay [5]; 0.378 µM in [6]. Also, the GI50 in assay [7] was 0.643 µM; in [8], 0.415 µM; in assay [9], 1.01 µM; in assay [10], 0.307 µM. The TGI is over 100 µM in assay [1]; 13.9 µM in assay [2]; over 100 µM in [3]; over 100 µM in assay [4]; over 100 µM in assay [5]; 2.91 µM in assay [6]. For the same compound, the TGI in assay [7] is over 100 µM; in assay [8], 2.07 µM; in assay [9] it was over 100 µM; in assay [10], 12 µM.

Turning to `Cc1c(-c2ccc(C3CCCCC3)cc2)nc2ccc(F)cc2c1C(=O)O`, the GI50 is 0.0196 µM in assay [1]; 14.5 µM in [3]; 0.0797 µM in assay [4]; 0.0815 µM in assay [5]; 12.2 µM in assay [6]; 0.2 µM in assay [7]. Further, the GI50 in assay [8] was 0.475 µM; in assay [9] it was 10.1 µM; in assay [10], 0.0701 µM. Besides, the TGI in assay [1], in [2], in assay [3], in assay [4], in assay [5] and in assay [6] was over 100 µM throughout. Also, the TGI is over 100 µM in [7], over 100 µM in [8], over 100 µM in assay [9] and over 70 µM in assay [10].

With `C[C@@]1(C(=O)O)CCC[C@]2(C)C1CC[C@@]13C[C@@](O)(CC[C@]12O)[C@@]1(CO1)C3` (stereo not given in full), the GI50 in assay [1], in assay [2], in assay [3], in [4], in assay [5] and in assay [6] was over 100 µM throughout. Further, the GI50 in [7], in [8], in assay [9] and in [10] was over 100 µM each time. Also, the TGI in assay [1], in assay [2], in [3], in [4], in assay [5] and in assay [6] was over 100 µM throughout. Besides, the TGI in assay [7], in assay [8], in assay [9] and in [10] was over 100 µM each time.

As for `NC(N)=NCC1CCCCCCN1` (stereo not given), the TGI in assay [1], in assay [2], in assay [3], in assay [4], in assay [5] and in [6] was over 100 µM throughout. Besides, the TGI in assay [7], in assay [8], in assay [9] and in [10] was over 100 µM in each case.

With `O=C1/C=C/[C@@H](O)[C@@H]2C[C@@H](O)C[C@H]2/C=C/CCC[C@H](CCc2cccc3ccccc23)O1`, the GI50 in assay [1] is 0.326 µM; in [2] it was 0.0713 µM; in assay [3] it was 0.0313 µM; in assay [4], 0.065 µM; in assay [5], 0.239 µM; in assay [6] it was 0.0358 µM. Further, the GI50 in assay [7] is 0.0923 µM; in assay [8], 0.0395 µM; in assay [9], 0.0444 µM; in assay [10], 0.121 µM. The TGI in assay [1] was determined as 10.5 µM; in assay [2] it was 11.8 µM; in assay [3], 0.163 µM; in [4] it was 12 µM; in assay [5], 3.08 µM; in assay [6] it was 14.5 µM. Moreover, the TGI is 22 µM in assay [7], 1.83 µM in [8], 0.33 µM in [9] and 16.3 µM in assay [10].

For the compound `C[C@H]1/C(=C/C(=O)OCCN(C)C)CC[C@H]2[C@H]1C(=O)C[C@H]1C(C)(C)[C@@H](O)CC[C@]21C`, the TGI in [1], in [2], in assay [3], in assay [4], in assay [5] and in assay [6] was over 100 µM throughout. In addition, the TGI in assay [7], in assay [8], in assay [9] and in [10] was over 100 µM throughout. In addition, the GI50 in assay [6] was over 100 µM.

Take `O=C(CCl)NCCNc1nccc(Nc2ccc(S(=O)(=O)Nc3ccccn3)cc2)n1`: the GI50 was 1.62 µM in assay [1]; 2.17 µM in [2]; 2.97 µM in assay [3]; 2.5 µM in [4]; 2.31 µM in assay [5]; 2.84 µM in assay [6]. Besides, the GI50 in assay [7] was 2.42 µM; in [8], 1.77 µM; in assay [9], 4.8 µM; in [10], 1.85 µM. Moreover, the TGI in assay [1] was determined as 4.38 µM; in assay [2], 5.46 µM; in assay [3], 13.5 µM; in assay [4], 7.45 µM; in assay [5], 10.4 µM; in [6] it was 13.3 µM. In addition, the TGI in assay [7] was 7.56 µM; in assay [8] it was 6.17 µM; in assay [9] it was 20.5 µM; in [10] it was 3.9 µM.

For the compound `CCCCCCCCCCCCCCCCCc1nccn1CCOCCO`, the GI50 in assay [1] was 6.36 µg/mL; in assay [2], 5.37 µg/mL; in assay [3], 6.22 µg/mL; in assay [4], 4.9 µg/mL; in assay [5], 6.3 µg/mL; in assay [6] it was 4.88 µg/mL. The GI50 was 5.03 µg/mL in [7], 4.74 µg/mL in assay [8], 5.76 µg/mL in assay [9] and 5.74 µg/mL in assay [10]. Further, the TGI is 12.2 µg/mL in [1]; 10.8 µg/mL in [2]; 11.4 µg/mL in [3]; 10.7 µg/mL in [4]; 13.1 µg/mL in [5]; 9.7 µg/mL in [6]. The TGI in assay [7] stood at 10.3 µg/mL; in [8], 9.64 µg/mL; in assay [9] it was 11.1 µg/mL; in assay [10], 11.1 µg/mL.

On to `O=C1/C(=C/c2ccccc2)CN(C(=O)C(Cl)Cl)C/C1=C\c1ccccc1`, for which the GI50 in assay [1] was 0.248 µM; in assay [2], 1.39 µM; in assay [3], 0.68 µM; in assay [4] it was 0.297 µM; in [5], 1.42 µM; in assay [6], 1.09 µM. The GI50 in assay [7] is 0.495 µM; in assay [8], 0.33 µM; in assay [9] it was 0.703 µM; in assay [10] it was 0.884 µM. Also, the TGI amounted to 0.77 µM in [1]; 2.84 µM in [2]; 1.81 µM in [3]; 1.08 µM in assay [4]; 2.95 µM in assay [5]; 2.31 µM in assay [6]. Further, the TGI worked out at 1.78 µM in assay [7], 1.06 µM in [8], 1.98 µM in assay [9] and 2.25 µM in assay [10].
